Each block holds one compound with its values, some of them ahead of it.
Tests used:
[1] = target: G protein-coupled receptor kinase 6 (Homo sapiens) (UniProt P43250); assay: Inhibition of human recombinant GPRK6 at 500 nM in presence of ATP by radiometric assay relative to control
[2] = target: Tau-tubulin kinase 2 (Homo sapiens) (UniProt Q6IQ55); assay: Inhibition of human recombinant TTBK2 at 500 nM related to control ULK1
[3] = target: T1, Dual specificity protein kinase TTK (Homo sapiens) (UniProt P33981); assay: Inhibition of human recombinant TTK at 500 nM related to control ULK1
T1 sequence (whole entry): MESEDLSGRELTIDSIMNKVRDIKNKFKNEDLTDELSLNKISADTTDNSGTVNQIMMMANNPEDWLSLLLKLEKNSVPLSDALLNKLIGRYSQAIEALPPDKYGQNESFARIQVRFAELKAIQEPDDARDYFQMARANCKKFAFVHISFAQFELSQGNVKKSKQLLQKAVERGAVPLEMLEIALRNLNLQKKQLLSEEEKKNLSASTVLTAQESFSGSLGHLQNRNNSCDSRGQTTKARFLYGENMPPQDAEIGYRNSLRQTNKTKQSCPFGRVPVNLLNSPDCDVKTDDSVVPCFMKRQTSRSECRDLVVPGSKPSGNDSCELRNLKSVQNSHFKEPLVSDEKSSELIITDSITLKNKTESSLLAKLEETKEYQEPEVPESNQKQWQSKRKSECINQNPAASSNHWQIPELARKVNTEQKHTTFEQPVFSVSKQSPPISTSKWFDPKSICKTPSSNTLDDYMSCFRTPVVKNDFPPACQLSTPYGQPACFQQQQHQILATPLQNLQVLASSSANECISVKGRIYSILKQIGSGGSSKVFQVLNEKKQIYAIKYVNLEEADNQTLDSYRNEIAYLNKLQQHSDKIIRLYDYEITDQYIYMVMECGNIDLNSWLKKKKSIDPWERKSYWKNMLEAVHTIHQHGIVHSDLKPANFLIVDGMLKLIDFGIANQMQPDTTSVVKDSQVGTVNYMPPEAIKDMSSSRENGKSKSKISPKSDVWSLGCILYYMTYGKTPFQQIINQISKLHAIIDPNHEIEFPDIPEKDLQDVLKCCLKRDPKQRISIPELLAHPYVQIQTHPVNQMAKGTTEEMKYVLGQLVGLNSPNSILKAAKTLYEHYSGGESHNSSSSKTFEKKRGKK

[4] = target: T2, Serine/threonine-protein kinase ULK2 (Homo sapiens) (UniProt Q8IYT8); assay: Inhibition of human recombinant ULK2 at 500 nM related to control ULK1
T2 sequence (whole entry): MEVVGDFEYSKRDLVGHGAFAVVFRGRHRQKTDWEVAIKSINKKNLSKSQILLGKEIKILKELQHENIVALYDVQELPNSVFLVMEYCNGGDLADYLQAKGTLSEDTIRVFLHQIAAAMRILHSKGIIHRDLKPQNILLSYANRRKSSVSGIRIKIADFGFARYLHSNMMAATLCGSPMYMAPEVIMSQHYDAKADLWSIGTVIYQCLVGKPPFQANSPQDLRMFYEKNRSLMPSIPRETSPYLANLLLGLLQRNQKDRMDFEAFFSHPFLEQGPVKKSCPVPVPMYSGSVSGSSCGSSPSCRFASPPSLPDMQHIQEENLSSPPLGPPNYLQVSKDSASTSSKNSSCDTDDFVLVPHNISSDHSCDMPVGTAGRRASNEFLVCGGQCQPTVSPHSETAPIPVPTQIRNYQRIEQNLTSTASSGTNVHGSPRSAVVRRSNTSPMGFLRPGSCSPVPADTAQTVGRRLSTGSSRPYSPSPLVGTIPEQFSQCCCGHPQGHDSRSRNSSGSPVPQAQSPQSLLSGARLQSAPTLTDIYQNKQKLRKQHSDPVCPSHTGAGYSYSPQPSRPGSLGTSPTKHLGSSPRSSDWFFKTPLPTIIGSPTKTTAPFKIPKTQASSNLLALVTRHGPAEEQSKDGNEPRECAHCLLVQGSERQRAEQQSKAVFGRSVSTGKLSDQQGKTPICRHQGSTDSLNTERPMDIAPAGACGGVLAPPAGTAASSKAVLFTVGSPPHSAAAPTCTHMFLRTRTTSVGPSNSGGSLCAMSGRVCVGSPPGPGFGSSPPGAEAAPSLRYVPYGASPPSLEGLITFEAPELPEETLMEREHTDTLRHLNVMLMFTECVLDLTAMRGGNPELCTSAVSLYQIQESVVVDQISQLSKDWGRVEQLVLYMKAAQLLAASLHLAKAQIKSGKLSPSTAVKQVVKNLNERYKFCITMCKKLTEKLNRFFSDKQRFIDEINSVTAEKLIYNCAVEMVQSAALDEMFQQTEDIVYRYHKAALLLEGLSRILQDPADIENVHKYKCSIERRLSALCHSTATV

[5] = target: T3, Serine/threonine-protein kinase ICK (Homo sapiens) (UniProt Q9UPZ9); assay: Inhibition of human recombinant ICK at 40 nM in presence of ATP by radiometric assay relative to control
T3 sequence (whole entry): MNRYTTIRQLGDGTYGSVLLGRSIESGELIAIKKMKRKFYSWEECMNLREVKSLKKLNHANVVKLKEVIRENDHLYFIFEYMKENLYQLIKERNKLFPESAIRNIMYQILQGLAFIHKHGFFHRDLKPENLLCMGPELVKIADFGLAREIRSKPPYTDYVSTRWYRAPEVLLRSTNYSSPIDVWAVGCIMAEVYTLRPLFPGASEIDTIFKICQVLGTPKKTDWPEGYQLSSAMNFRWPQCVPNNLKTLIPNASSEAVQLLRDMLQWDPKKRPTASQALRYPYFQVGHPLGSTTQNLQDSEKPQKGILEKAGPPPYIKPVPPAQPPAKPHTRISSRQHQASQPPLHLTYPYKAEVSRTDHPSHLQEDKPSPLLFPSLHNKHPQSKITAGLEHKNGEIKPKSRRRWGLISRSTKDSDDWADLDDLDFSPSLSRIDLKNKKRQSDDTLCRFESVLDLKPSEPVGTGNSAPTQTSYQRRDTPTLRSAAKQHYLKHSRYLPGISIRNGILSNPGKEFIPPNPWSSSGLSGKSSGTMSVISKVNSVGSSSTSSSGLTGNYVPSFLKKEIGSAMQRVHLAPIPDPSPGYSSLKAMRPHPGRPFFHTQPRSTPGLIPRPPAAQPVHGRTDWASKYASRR

[6] = target: Serine/threonine-protein kinase MRCK beta (Homo sapiens) (UniProt Q9Y5S2); assay: Inhibition of human recombinant MRCKb at 40 nM in presence of ATP by radiometric assay relative to control
[7] = target: Macrophage colony-stimulating factor 1 receptor (Homo sapiens) (UniProt P07333); assay: Inhibition of human recombinant FMS at 15 nM related to control ULK1
Sequence of Macrophage colony-stimulating factor 1 receptor (Homo sapiens) (P07333 whole entry): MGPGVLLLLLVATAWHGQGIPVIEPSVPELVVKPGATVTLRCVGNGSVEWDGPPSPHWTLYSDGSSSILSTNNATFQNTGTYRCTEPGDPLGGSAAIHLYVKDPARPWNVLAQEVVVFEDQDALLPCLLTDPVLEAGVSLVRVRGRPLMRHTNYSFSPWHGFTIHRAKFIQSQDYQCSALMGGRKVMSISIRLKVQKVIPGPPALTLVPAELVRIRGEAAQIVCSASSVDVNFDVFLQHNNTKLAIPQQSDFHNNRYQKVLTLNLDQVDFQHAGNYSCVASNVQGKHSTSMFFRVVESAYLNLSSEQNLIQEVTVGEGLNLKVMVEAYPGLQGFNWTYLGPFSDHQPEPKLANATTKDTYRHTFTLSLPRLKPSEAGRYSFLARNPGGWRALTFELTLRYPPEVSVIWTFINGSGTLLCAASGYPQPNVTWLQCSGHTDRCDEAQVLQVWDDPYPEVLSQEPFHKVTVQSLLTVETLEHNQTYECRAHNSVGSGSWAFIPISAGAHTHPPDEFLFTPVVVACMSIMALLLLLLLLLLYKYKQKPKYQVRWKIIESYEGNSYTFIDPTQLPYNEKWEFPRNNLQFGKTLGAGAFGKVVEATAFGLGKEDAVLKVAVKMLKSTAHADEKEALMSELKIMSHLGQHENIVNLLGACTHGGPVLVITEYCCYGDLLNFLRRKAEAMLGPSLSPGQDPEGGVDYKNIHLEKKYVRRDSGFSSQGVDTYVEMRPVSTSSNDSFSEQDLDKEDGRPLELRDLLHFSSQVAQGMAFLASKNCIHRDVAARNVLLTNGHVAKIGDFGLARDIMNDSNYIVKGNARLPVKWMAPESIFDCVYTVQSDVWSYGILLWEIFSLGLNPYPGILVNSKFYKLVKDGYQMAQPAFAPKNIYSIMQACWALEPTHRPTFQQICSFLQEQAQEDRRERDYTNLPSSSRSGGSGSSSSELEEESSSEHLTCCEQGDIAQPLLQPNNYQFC

Sequence of Serine/threonine-protein kinase MRCK beta (Homo sapiens) (Q9Y5S2 whole entry): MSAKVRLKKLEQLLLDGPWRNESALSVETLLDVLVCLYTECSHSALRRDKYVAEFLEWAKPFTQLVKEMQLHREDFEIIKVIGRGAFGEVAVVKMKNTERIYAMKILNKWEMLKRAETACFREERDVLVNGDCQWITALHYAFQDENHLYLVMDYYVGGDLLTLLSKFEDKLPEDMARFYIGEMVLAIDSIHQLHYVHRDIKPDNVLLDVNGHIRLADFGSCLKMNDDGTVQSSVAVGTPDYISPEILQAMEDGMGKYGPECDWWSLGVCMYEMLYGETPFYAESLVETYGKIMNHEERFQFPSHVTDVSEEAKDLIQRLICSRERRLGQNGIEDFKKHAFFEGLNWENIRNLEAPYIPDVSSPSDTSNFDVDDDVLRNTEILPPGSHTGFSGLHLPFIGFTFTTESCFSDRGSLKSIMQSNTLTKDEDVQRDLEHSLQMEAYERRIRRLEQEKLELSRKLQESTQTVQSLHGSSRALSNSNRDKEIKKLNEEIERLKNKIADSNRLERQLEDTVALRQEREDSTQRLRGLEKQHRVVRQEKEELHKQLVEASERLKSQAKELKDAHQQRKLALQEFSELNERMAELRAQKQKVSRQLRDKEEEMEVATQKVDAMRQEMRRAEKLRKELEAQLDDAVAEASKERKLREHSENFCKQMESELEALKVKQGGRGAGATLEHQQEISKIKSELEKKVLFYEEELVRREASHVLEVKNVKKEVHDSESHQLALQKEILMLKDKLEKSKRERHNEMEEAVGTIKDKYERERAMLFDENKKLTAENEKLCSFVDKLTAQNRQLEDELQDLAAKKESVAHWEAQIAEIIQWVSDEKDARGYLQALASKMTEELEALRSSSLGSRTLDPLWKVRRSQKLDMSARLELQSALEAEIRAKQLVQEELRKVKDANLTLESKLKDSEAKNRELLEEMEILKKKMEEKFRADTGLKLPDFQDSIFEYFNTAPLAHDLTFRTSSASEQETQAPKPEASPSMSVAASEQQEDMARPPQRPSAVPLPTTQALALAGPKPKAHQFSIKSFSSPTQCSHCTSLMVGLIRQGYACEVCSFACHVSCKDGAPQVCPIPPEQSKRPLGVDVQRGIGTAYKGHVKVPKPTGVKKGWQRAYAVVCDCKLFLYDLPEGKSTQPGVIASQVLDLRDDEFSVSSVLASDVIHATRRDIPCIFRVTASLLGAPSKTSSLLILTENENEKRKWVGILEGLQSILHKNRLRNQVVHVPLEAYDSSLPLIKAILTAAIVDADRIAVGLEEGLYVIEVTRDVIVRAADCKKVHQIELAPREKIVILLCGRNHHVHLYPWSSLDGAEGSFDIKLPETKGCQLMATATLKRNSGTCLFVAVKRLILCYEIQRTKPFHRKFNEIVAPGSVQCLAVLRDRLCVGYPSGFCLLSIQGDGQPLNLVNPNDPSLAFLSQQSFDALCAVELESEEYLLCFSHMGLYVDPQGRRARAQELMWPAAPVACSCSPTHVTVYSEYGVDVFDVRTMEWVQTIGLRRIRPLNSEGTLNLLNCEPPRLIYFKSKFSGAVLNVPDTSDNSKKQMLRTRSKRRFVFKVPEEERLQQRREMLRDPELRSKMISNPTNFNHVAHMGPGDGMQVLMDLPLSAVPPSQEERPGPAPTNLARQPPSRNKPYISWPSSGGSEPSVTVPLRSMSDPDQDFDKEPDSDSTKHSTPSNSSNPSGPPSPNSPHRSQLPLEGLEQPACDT
Sequence of G protein-coupled receptor kinase 6 (Homo sapiens) (P43250 whole entry, looked up): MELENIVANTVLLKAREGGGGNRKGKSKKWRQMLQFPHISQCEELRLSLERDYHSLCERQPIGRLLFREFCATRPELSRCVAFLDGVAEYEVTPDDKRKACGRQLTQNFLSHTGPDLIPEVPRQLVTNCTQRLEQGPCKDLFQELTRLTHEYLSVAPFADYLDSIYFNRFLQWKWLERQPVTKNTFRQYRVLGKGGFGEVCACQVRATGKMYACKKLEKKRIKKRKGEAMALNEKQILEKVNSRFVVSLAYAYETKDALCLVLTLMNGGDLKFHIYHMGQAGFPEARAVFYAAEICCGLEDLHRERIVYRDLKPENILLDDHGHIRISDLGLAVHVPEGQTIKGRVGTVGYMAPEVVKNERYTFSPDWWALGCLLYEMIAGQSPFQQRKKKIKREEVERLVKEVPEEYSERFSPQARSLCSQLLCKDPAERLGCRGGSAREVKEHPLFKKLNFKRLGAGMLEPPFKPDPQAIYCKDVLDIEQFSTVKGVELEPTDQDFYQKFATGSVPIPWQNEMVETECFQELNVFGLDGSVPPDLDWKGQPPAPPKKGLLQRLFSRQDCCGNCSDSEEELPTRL
Sequence of Tau-tubulin kinase 2 (Homo sapiens) (Q6IQ55 whole entry): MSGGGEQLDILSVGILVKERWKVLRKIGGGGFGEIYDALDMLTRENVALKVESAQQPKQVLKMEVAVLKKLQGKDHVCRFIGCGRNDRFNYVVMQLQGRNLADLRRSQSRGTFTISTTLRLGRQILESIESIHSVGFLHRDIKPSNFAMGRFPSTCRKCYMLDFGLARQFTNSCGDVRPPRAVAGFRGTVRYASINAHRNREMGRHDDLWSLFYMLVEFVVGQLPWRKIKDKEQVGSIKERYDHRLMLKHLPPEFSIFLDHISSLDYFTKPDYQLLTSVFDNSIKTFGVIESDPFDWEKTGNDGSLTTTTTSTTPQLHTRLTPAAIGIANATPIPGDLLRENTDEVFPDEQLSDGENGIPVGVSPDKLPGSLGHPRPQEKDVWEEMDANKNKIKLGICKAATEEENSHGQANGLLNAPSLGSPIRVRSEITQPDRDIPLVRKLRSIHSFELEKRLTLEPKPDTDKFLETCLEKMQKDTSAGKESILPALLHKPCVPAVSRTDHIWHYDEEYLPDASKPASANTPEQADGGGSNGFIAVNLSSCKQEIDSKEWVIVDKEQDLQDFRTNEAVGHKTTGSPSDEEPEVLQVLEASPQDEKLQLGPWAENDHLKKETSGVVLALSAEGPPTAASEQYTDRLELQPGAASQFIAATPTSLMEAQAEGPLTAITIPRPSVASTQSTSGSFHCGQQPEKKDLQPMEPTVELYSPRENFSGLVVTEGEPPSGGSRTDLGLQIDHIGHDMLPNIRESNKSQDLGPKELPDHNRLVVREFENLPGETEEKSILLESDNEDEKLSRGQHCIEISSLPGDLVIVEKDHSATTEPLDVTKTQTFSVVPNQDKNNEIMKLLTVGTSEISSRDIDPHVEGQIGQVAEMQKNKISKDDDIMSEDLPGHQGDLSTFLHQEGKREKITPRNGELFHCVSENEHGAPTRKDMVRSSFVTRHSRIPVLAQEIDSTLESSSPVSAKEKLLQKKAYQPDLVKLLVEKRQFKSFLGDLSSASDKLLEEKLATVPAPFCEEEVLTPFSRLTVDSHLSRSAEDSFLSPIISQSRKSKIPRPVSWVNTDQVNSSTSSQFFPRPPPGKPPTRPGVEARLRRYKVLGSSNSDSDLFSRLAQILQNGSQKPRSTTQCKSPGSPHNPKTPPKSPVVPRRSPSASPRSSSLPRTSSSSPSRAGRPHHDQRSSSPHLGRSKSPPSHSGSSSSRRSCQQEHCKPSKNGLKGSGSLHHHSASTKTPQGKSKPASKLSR

- inhibition [1]: 12%
- fold change (FC) [2]: 0.08
- fold change (FC) [3]: 0.15
- fold change (FC) [4]: 0.65
SMILES: CNC(=O)c1ccccc1Oc1nc(Nc2cc(OC)c(OC)c(OC)c2)ncc1Br

- inhibition [5]: 0%
- inhibition [6]: 5%
SMILES: O=C(N[C@@H](C1CC1)C(F)(F)F)c1cc(-c2cnn3cc(-c4ccc(F)cc4)cnc23)cs1

- fold change (FC) [7]: 0.19
SMILES: CC(C)[C@H](NC(=O)c1cc(-c2cnn3cc(-c4ccc(OCCN5CCCCC5)cc4)cnc23)cs1)C(F)(F)F
